# According to PMC5218480 (PLoS ONE, 2017):
# System: MV-4-11 cells
# Test: Gene expression microarray analysis (Affymetrix PrimeView) and GSEA
# Type: cell-based, human
# Parameters: RFU PODN (11730768_x_at) / Fold change /veh PODN (11730768_x_at) / RFU LINC00158 (11744669_a_at) / Fold change /veh LINC00158 (11744669_a_at) / RFU DUSP10 (11751237_a_at) / Fold change /veh DUSP10 (11751237_a_at) / RFU ID3 (11757404_x_at) / Fold change /veh ID3 (11757404_x_at) / RFU PLEKHG5 (11737974_s_at) / Fold change /veh PLEKHG5 (11737974_s_at) / RFU LRRC4B (11730491_at) / Fold change /veh LRRC4B (11730491_at) / RFU GIMAP4 (11747438_a_at) / Fold change /veh GIMAP4 (11747438_a_at) / RFU KRT8 (11758183_x_at) / Fold change /veh KRT8 (11758183_x_at) / RFU CNN1 (11734310_a_at) / Fold change /veh CNN1 (11734310_a_at) / RFU VPS37D (11726825_at) / Fold change /veh VPS37D (11726825_at) / RFU C10orf10 (11716522_x_at) / Fold change /veh C10orf10 (11716522_x_at) / RFU KIR2DL2 /// KIR2DL4 /// KIR2DL5A /// KIR2DL5B /// KIR2DS1 /// KIR2DS2 /// KIR2DS3 /// KIR2DS4 /// KIR3DL3 /// KIR3DL3 /// KIR3DS1 (11738374_at) / Fold change /veh KIR2DL2 /// KIR2DL4 /// KIR2DL5A /// KIR2DL5B /// KIR2DS1 /// KIR2DS2 /// KIR2DS3 /// KIR2DS4 /// KIR3DL3 /// KIR3DL3 /// KIR3DS1 (11738374_at) / RFU C1QL1 (11718748_at) / Fold change /veh C1QL1 (11718748_at) / RFU TMPRSS4 (11747572_a_at) / Fold change /veh TMPRSS4 (11747572_a_at) / RFU HAMP (11756126_x_at) / Fold change /veh HAMP (11756126_x_at) / RFU RNFT2 (11725882_a_at) / Fold change /veh RNFT2 (11725882_a_at) / RFU NR4A2 (11747474_a_at) / Fold change /veh NR4A2 (11747474_a_at) / RFU ABCC12 (11746883_a_at) / Fold change /veh ABCC12 (11746883_a_at) / RFU TMEM136 (11760407_x_at) / Fold change /veh TMEM136 (11760407_x_at) / RFU CLDN22 /// WWC2 (11732394_at) / Fold change /veh CLDN22 /// WWC2 (11732394_at) / RFU HLA-DPB1 (11760878_x_at) / Fold change /veh HLA-DPB1 (11760878_x_at) / RFU SPINT1 (11716480_a_at) / Fold change /veh SPINT1 (11716480_a_at) / RFU GAP43 (11754022_s_at) / Fold change /veh GAP43 (11754022_s_at) / RFU A4GNT (11735810_at) / Fold change /veh A4GNT (11735810_at) / RFU PRB3 (11715151_x_at) / Fold change /veh PRB3 (11715151_x_at) / RFU TUBB4B (11761932_at) / Fold change /veh TUBB4B (11761932_at) / RFU CAPN14 (11732068_a_at) / Fold change /veh CAPN14 (11732068_a_at) / RFU TMCC2 (11721928_a_at) / Fold change /veh TMCC2 (11721928_a_at) / RFU IRGQ (11745062_a_at) / Fold change /veh IRGQ (11745062_a_at) / RFU FAM174B (11720279_a_at) / Fold change /veh FAM174B (11720279_a_at) / RFU TMPRSS4 (11748680_a_at) / Fold change /veh TMPRSS4 (11748680_a_at) / RFU FAM212B (11763350_a_at) / Fold change /veh FAM212B (11763350_a_at) / RFU PLEKHG5 (11743358_a_at) / Fold change /veh PLEKHG5 (11743358_a_at) / RFU ZSCAN30 (11745921_a_at) / Fold change /veh ZSCAN30 (11745921_a_at) / RFU CMKLR1 (11741424_a_at) / Fold change /veh CMKLR1 (11741424_a_at) / RFU LOC101060620 /// MAPK8IP1 (11723275_at) / Fold change /veh LOC101060620 /// MAPK8IP1 (11723275_at) / RFU SPTSSB (11747773_x_at) / Fold change /veh SPTSSB (11747773_x_at) / RFU PRSS12 (11739890_at) / Fold change /veh PRSS12 (11739890_at) / RFU BIN1 (11741810_x_at) / Fold change /veh BIN1 (11741810_x_at) / RFU WNT11 (11732464_a_at) / Fold change /veh WNT11 (11732464_a_at) / RFU C10orf10 (11716521_a_at) / Fold change /veh C10orf10 (11716521_a_at) / RFU C5orf56 (11738089_at) / Fold change /veh C5orf56 (11738089_at) / RFU CYB561 (11721691_x_at) / Fold change /veh CYB561 (11721691_x_at) / RFU ANKRD19P (11752326_a_at) / Fold change /veh ANKRD19P (11752326_a_at) / RFU OR2T12 /// OR2T33 /// OR2T8 (11738714_s_at) / Fold change /veh OR2T12 /// OR2T33 /// OR2T8 (11738714_s_at) / RFU VCAN (11748164_a_at) / Fold change /veh VCAN (11748164_a_at) / RFU JSRP1 (11732532_at) / Fold change /veh JSRP1 (11732532_at) / RFU KRTAP10-11 (11738290_x_at) / Fold change /veh KRTAP10-11 (11738290_x_at) / RFU MYO3A (11730013_a_at) / Fold change /veh MYO3A (11730013_a_at) / RFU EBF3 (11725865_a_at) / Fold change /veh EBF3 (11725865_a_at) / RFU CAMK2N1 (11719241_x_at) / Fold change /veh CAMK2N1 (11719241_x_at) / RFU C5orf56 (11738088_a_at) / Fold change /veh C5orf56 (11738088_a_at) / RFU OLFML3 (11715873_a_at) / Fold change /veh OLFML3 (11715873_a_at) / RFU LOC100653217 /// NTM (11731650_a_at) / Fold change /veh LOC100653217 /// NTM (11731650_a_at) / RFU MAPK11 (11762145_a_at) / Fold change /veh MAPK11 (11762145_a_at) / RFU FIZ1 (11724087_x_at) / Fold change /veh FIZ1 (11724087_x_at) / RFU OASL (11726364_x_at) / Fold change /veh OASL (11726364_x_at) / RFU SOX15 (11748057_x_at) / Fold change /veh SOX15 (11748057_x_at) / RFU CD79A (11719716_a_at) / Fold change /veh CD79A (11719716_a_at) / RFU HIST1H1D (11736915_at) / Fold change /veh HIST1H1D (11736915_at) / RFU CASKIN2 (11723855_a_at) / Fold change /veh CASKIN2 (11723855_a_at) / RFU LOC730098 (11760151_x_at) / Fold change /veh LOC730098 (11760151_x_at) / RFU OR4N2 (11742367_at) / Fold change /veh OR4N2 (11742367_at) / RFU PRRT2 (11749266_a_at) / Fold change /veh PRRT2 (11749266_a_at) / RFU SNX32 (11753110_a_at) / Fold change /veh SNX32 (11753110_a_at) / RFU CDHR5 (11726645_a_at) / Fold change /veh CDHR5 (11726645_a_at) / RFU RCAN1 (11760418_a_at) / Fold change /veh RCAN1 (11760418_a_at) / RFU FAM167A (11723789_a_at) / Fold change /veh FAM167A (11723789_a_at) / RFU FAM26E (11764081_at) / Fold change /veh FAM26E (11764081_at) / RFU ISYNA1 (11749810_s_at) / Fold change /veh ISYNA1 (11749810_s_at) / RFU ACY1 (11761880_at) / Fold change /veh ACY1 (11761880_at) / RFU 11764098_at / Fold change /veh 11764098_at / RFU SAMD14 (11745864_x_at) / Fold change /veh SAMD14 (11745864_x_at) / RFU NPB (11741838_a_at) / Fold change /veh NPB (11741838_a_at) / RFU TMPRSS6 (11731388_a_at) / Fold change /veh TMPRSS6 (11731388_a_at) / RFU KRTAP10-2 (11738614_at) / Fold change /veh KRTAP10-2 (11738614_at) / RFU ARHGAP8 /// PRR5-ARHGAP8 (11727945_x_at) / Fold change /veh ARHGAP8 /// PRR5-ARHGAP8 (11727945_x_at) / RFU KRTAP5-7 /// NADSYN1 (11734609_at) / Fold change /veh KRTAP5-7 /// NADSYN1 (11734609_at) / RFU RASL12 (11751679_a_at) / Fold change /veh RASL12 (11751679_a_at) / RFU CDKN2B (11736163_a_at) / Fold change /veh CDKN2B (11736163_a_at) / RFU PRF1 (11729649_at) / Fold change /veh PRF1 (11729649_at) / RFU, ZNF638 /// ZNF638-IT1 / Fold change vs veh, ZNF638 /// ZNF638-IT1 / RFU, PANK3 / Fold change vs veh, PANK3 / RFU, SH3YL1 / Fold change vs veh, SH3YL1 / RFU, ZEB2 / Fold change vs veh, ZEB2 / RFU, NRIP1 / Fold change vs veh, NRIP1 / RFU, PTTG1IP / Fold change vs veh, PTTG1IP / RFU, CAPN2 / Fold change vs veh, CAPN2 / RFU, MED14 / Fold change vs veh, MED14 / RFU, SNORA58 / Fold change vs veh, SNORA58 / RFU, C1orf63 / Fold change vs veh, C1orf63 / RFU, LRRFIP1 / Fold change vs veh, LRRFIP1 / RFU, NDUFAF7 / Fold change vs veh, NDUFAF7 / RFU, SLC12A2 / Fold change vs veh, SLC12A2 / RFU, IBTK / Fold change vs veh, IBTK / RFU, ESF1 / Fold change vs veh, ESF1 / Fold change vs veh, TMEM50B / RFU, TAOK1 / Fold change vs veh, TAOK1 / RFU, ACBD3 / Fold change vs veh, ACBD3 / RFU, TMA16 / Fold change vs veh, TMA16 / RFU, RWDD3 / Fold change vs veh, RWDD3 / RFU, BCAT1 / Fold change vs veh, BCAT1 / RFU, EDEM3 / Fold change vs veh, EDEM3 / RFU, TMEM33 / Fold change vs veh, TMEM33 / RFU, WDR75 / Fold change vs veh, WDR75 / RFU, AHCTF1 / Fold change vs veh, AHCTF1 / RFU, TFRC / Fold change vs veh, TFRC / RFU, ZDHHC17 / Fold change vs veh, ZDHHC17 / RFU, NOM1 / Fold change vs veh, NOM1 / RFU, ARL8B / Fold change vs veh, ARL8B / RFU, ZBTB11 / Fold change vs veh, ZBTB11 / RFU, TAMM41 / Fold change vs veh, TAMM41 / RFU, KIAA1704 /// LOC100996395 / Fold change vs veh, KIAA1704 /// LOC100996395 / RFU, ING1 / Fold change vs veh, ING1 / RFU, TRMT61B / Fold change vs veh, TRMT61B / RFU, FUBP3 / Fold change vs veh, FUBP3 / RFU, TP53 / Fold change vs veh, TP53 / RFU, TNKS2 / Fold change vs veh, TNKS2 / RFU, ZFP14 / Fold change vs veh, ZFP14 / RFU, ACTR2 / Fold change vs veh, ACTR2 / RFU, PPP3R1 / Fold change vs veh, PPP3R1 / RFU, PIK3R1 / Fold change vs veh, PIK3R1 / RFU, HNRNPA1 / Fold change vs veh, HNRNPA1 / RFU, RNF170 / Fold change vs veh, RNF170 / RFU, ZNF28 / Fold change vs veh, ZNF28 / RFU, RNGTT / Fold change vs veh, RNGTT / RFU, OGT / Fold change vs veh, OGT / RFU, BRD1 / Fold change vs veh, BRD1 / RFU, MARS / Fold change vs veh, MARS / RFU, ZNF655 / Fold change vs veh, ZNF655 / RFU, FAHD1 / Fold change vs veh, FAHD1 / RFU, BDP1 / Fold change vs veh, BDP1 / RFU, LRRCC1 / Fold change vs veh, LRRCC1 / RFU, ARID1A / Fold change vs veh, ARID1A / RFU, ZNF146 / Fold change vs veh, ZNF146 / RFU, ZNF330 / Fold change vs veh, ZNF330 / RFU, GPN3 / Fold change vs veh, GPN3 / RFU, C9orf123 / Fold change vs veh, C9orf123 / RFU, N4BP2L2 / Fold change vs veh, N4BP2L2 / RFU, ARFIP1 / Fold change vs veh, ARFIP1 / RFU, FAM179B / Fold change vs veh, FAM179B / RFU, BCL10 / Fold change vs veh, BCL10 / RFU, UHRF1BP1L / Fold change vs veh, UHRF1BP1L / RFU, BET1 / Fold change vs veh, BET1 / RFU, CNOT2 / Fold change vs veh, CNOT2 / RFU, ZNF268 / Fold change vs veh, ZNF268 / Fold change vs veh, ZNF507 / RFU, DGCR2 / Fold change vs veh, DGCR2 / RFU, WDSUB1 / Fold change vs veh, WDSUB1 / Fold change vs veh, HSP90B1 /// MIR3652 / RFU, ADSS / Fold change vs veh, ADSS / RFU, GK / Fold change vs veh, GK / RFU, ZNF148 / Fold change vs veh, ZNF148 / RFU, TAF9 / Fold change vs veh, TAF9 / RFU, SLC1A5 / Fold change vs veh, SLC1A5 / RFU, SLMO2 / Fold change vs veh, SLMO2 / RFU, ABCC4 / Fold change vs veh, ABCC4 / RFU, LOC101060439 /// RAP1B / Fold change vs veh, LOC101060439 /// RAP1B / RFU, RFX7 / Fold change vs veh, RFX7 / RFU, GTPBP10 / Fold change vs veh, GTPBP10 / RFU, CNEP1R1 / Fold change vs veh, CNEP1R1 / RFU, BIVM-ERCC5 /// ERCC5 / Fold change vs veh, BIVM-ERCC5 /// ERCC5 / RFU, ILF3 / Fold change vs veh, ILF3 / RFU 11762660_at / Fold change /veh 11762660_at / RFU VCAN (11757783_s_at) / Fold change /veh VCAN (11757783_s_at) / RFU DDX43 (11728927_at) / Fold change /veh DDX43 (11728927_at) / RFU KRT8 (11758188_x_at) / Fold change /veh KRT8 (11758188_x_at) / RFU NKD1 (11759106_at) / Fold change /veh NKD1 (11759106_at) / RFU SRD5A1 (11742802_a_at) / Fold change /veh SRD5A1 (11742802_a_at) / RFU TPSAB1 /// TPSB2 (11721975_s_at) / Fold change /veh TPSAB1 /// TPSB2 (11721975_s_at) / RFU GSTM3 (11746129_a_at) / Fold change /veh GSTM3 (11746129_a_at) / RFU IL23R (11737362_x_at) / Fold change /veh IL23R (11737362_x_at) / RFU TMEM51 (11727254_a_at) / Fold change /veh TMEM51 (11727254_a_at) / RFU PIWIL2 (11732686_x_at) / Fold change /veh PIWIL2 (11732686_x_at) / RFU ORM1 (11744905_x_at) / Fold change /veh ORM1 (11744905_x_at) / RFU CCDC152 (11743942_at) / Fold change /veh CCDC152 (11743942_at) / RFU ECM1 (11717891_a_at) / Fold change /veh ECM1 (11717891_a_at) / RFU IL23R (11748794_a_at) / Fold change /veh IL23R (11748794_a_at) / RFU TNFAIP8L3 (11732012_x_at) / Fold change /veh TNFAIP8L3 (11732012_x_at) / RFU MBOAT4 (11741988_at) / Fold change /veh MBOAT4 (11741988_at) / RFU 11764193_at / Fold change /veh 11764193_at / RFU TMEM53 (11763286_at) / Fold change /veh TMEM53 (11763286_at) / RFU MAGEB2 (11727129_at) / Fold change /veh MAGEB2 (11727129_at) / RFU TMEM200A (11744735_a_at) / Fold change /veh TMEM200A (11744735_a_at) / RFU CCDC152 (11751479_a_at) / Fold change /veh CCDC152 (11751479_a_at) / RFU FAM211A (11726209_a_at) / Fold change /veh FAM211A (11726209_a_at) / RFU RGS16 (11746705_a_at) / Fold change /veh RGS16 (11746705_a_at) / RFU VCAN (11755009_s_at) / Fold change /veh VCAN (11755009_s_at) / RFU RHOB (11743442_s_at) / Fold change /veh RHOB (11743442_s_at) / RFU RGS16 (11720943_a_at) / Fold change /veh RGS16 (11720943_a_at) / RFU RGS16 (11720944_at) / Fold change /veh RGS16 (11720944_at) / RFU, VPS4B / Fold change vs veh, VPS4B / RFU, CREB1 / Fold change vs veh, CREB1 / RFU, DNAJC13 / Fold change vs veh, DNAJC13 / RFU, GNAQ / Fold change vs veh, GNAQ / RFU, CDK5R1 / Fold change vs veh, CDK5R1 / RFU, ZRANB3 / Fold change vs veh, ZRANB3 / RFU, CUL4A / Fold change vs veh, CUL4A / RFU, CCNY / Fold change vs veh, CCNY / RFU, UFL1 / Fold change vs veh, UFL1 / RFU, COG3 / Fold change vs veh, COG3 / RFU, DIAPH2 / Fold change vs veh, DIAPH2 / RFU, SKA2 / Fold change vs veh, SKA2 / RFU, AFF3 / Fold change vs veh, AFF3 / RFU, LMF1 / Fold change vs veh, LMF1 / RFU, IPO11 / Fold change vs veh, IPO11 / RFU, DFFB / Fold change vs veh, DFFB / RFU, FOXP1 / Fold change vs veh, FOXP1 / RFU, CARD8 / Fold change vs veh, CARD8 / RFU, STRN3 / Fold change vs veh, STRN3 / RFU, ADK / Fold change vs veh, ADK / RFU, RASSF2 / Fold change vs veh, RASSF2 / RFU, WIPF1 / Fold change vs veh, WIPF1 / RFU, LARP1B / Fold change vs veh, LARP1B / RFU, RASA1 / Fold change vs veh, RASA1 / RFU, RB1 / Fold change vs veh, RB1 / RFU, PPFIA1 / Fold change vs veh, PPFIA1 / RFU, MAT2A / Fold change vs veh, MAT2A / RFU, CCT5 / Fold change vs veh, CCT5 / RFU, WDR92 / Fold change vs veh, WDR92 / RFU, CUX1 / Fold change vs veh, CUX1 / RFU, TTC7A / Fold change vs veh, TTC7A / RFU, TMEM135 / Fold change vs veh, TMEM135 / RFU, DEPTOR / Fold change vs veh, DEPTOR / RFU, CPM / Fold change vs veh, CPM / RFU, DNAJB6 / Fold change vs veh, DNAJB6 / RFU, CACNA2D3 / Fold change vs veh, CACNA2D3 / RFU, DTX4 / Fold change vs veh, DTX4 / RFU, TFCP2 / Fold change vs veh, TFCP2 / RFU, GMCL1 /// GMCL1P1 / Fold change vs veh, GMCL1 /// GMCL1P1 / RFU, AEBP2 / Fold change vs veh, AEBP2 / RFU, SNHG1 /// SNORD22 /// SNORD25 /// SNORD26 /// SNORD27 /// SNORD28 /// SNORD29 /// SNORD31 / Fold change vs veh, SNHG1 /// SNORD22 /// SNORD25 /// SNORD26 /// SNORD27 /// SNORD28 /// SNORD29 /// SNORD31 / Fold change (Aza/veh), C12orf56 (ProbeSet 11735607_a_at) / Fold change (ACY-1035/veh), C12orf56 (ProbeSet 11735607_a_at) / Fold change (Aza/veh), FGFR1OP (ProbeSet 11751329_s_at) / Fold change (ACY-1035/veh), FGFR1OP (ProbeSet 11751329_s_at) / Fold change (Aza/veh), VPS36 (ProbeSet 11739960_a_at) / Fold change (ACY-1035/veh), VPS36 (ProbeSet 11739960_a_at) / RFU SYPL1 (11715823_x_at) / Fold change /veh SYPL1 (11715823_x_at) / RFU IGFBP7 (11715501_s_at) / Fold change /veh IGFBP7 (11715501_s_at) / RFU REEP3 (11722064_at) / Fold change /veh REEP3 (11722064_at) / RFU IGLL1 (11728026_x_at) / Fold change /veh IGLL1 (11728026_x_at): dose or concentration left out as unconfirmed
# Details: ProbeSet 11718977_a_at; LIST B
smiles,measurement,value
Nc1ccc(-c2cccs2)cc1NC(=O)c1ccc2c(c1)cc(C1CC1)n2CCN1CCOCC1 [ACY-1035],"Fold change vs veh, CAPN2",0.88
